Laboratory results taken from paper PMC3929365, “Benzimidazoisoquinolines: A New Class of Rapidly Metabolized Aryl Hydrocarbon Receptor (AhR) Ligands that Induce AhR-Dependent Tregs and Prevent Murine Graft-Versus-Host Disease” (PLoS ONE, 2014).

How the values were obtained:
AhR = test: Subtilisin proteolysis pattern of AhR in Hepa1c1c7 whole cell lysate; format: biochemical, mouse; settings: 100 nM, 1 h, 1 µg/ml subtilisin
Method: Figure 1 10-Cl-BBQ is a potent AhR ligand. A) Structure of 10-Cl-BBQ. […] C) Hepa-1 cells expressing endogenous AhR were transfected with an AhR-regulated luciferase reporter gene (xenobiotic responsive element (XRE)-MMTVpromoter-Luc) and the reporter gene activity was measured after 12 h of treatment with 1 nM TCDD or the indicated concentrations of 10-Cl-BBQ. D) Alteration in proteolytic pattern of AhR by 10-Cl-BBQ. Whole cell lysate (45 µg of protein) from mouse hepatoma Hepa1c1c7 cells was incubated with 100 nM 10-Cl-BBQ or 0.1% DMSO for 1 h at RT and proteolyzed by 1 µg/ml subtilisin for 1, 2, 4, and 8 min at RT. Proteolytic cleavage products of AhR were analyzed by immunoblot. E) Electrophoretic mobility shift assay showing the ligand-stimulated binding of AhR to XRE. Whole cell lysate (18 µg of protein) from mouse hepatoma Hepa1c1c7 cells was incubated with 10 nM 10-Cl-BBQ or 0.1% DMSO for 2 h at room temperature and ^32P-labeled oligonucleotide containing XRE for 20 min at room temperature. The samples were electrophoresed on a native polyacrylamide gel and the signal was visualized by Phosphor Imager. Unlabeled competitor XRE or antibody (Ab) against AhR or Arnt was co-incubated with ^32P-labeled oligonucleotide.

Foxp3 = test: Lymph node gene expression (RT-qPCR) during the GVH response; format: in vivo, B6D2F1 host mice; settings: any dose (0.4, 2 or 10 mg/kg/day), lymph nodes, 48 h
Method: RNA was isolated from lymph nodes of B6D2F1 host mice with the RNeasy Mini Kit (Qiagen). cDNA was prepared from at least 1 µg RNA in a 2-step reaction using the ReactionReady First Strand cDNA synthesis kit (SA Biosciences) according to the manufacturer’s instructions and Superscript III reverse-transcriptase (Life Technologies). The qPCR reaction was carried out on an ABI PRISM 7500 Real-Time PCR system (Applied Biosystems). The reaction mixture consisted of SYBR Green/ROX qPCR Master Mix (SA Bioscience), 2–10 ng-RNA equivalent cDNA and 1 µl of the gene-specific commercial primer sets (SA Biosciences). The following conditions were used: 10 min at 95°C (1 cycle), 15 s at 95°C and 1 min at 60°C (40 cycles). […] The raw data was normalized to Actb and the fold-change was calculated by the ΔΔCt method using vehicle-treated sample values as the control.
Figure 3 10-Cl-BBQ induces an AhR-dependent Treg phenotype 48 h after initiating the GVH response. […] E) In the same mice as in D, lymph nodes were harvested and analyzed for expression of genes that were previously shown to increase under the same GVH conditions with TCDD treatment (13). […] Changes in gene expression were calculated relative to the β-actin gene, and the fold-induction was calculated by the ΔΔCt method using the vehicle-treated samples as a control. * = p<0.05 relative to vehicle treatment. […]

[1] = Serum liver chemistry profile; format: in vivo, B6D2F1 mice; settings: 10 mg/kg/day i.p., 2 days
Method: Supplementary file pone.0088726.s004.docx: Table S1 Serum liver chemistry profile. B6D2F1 mice were give 10 mg/kg/day of 10-Cl-BBQ or vehicle i.p. After 2 days serum was collected and analyzed. n = 5 mice per treatment, average values are shown(± standard deviation). ALT – Alanine transaminase, SGPT – serum glutamic pyruvate transaminase. (DOCX) Click here for additional data file.
Table S1. Serum liver chemistry profile. B6D2F1 mice were give 10 mg/kg/day of 10-Cl-BBQ or vehicle i.p. After 2 days serum was collected and analyzed. n = 5 mice per treatment, average values are shown(± standard deviation). ALT – Alanine transaminase, SGPT – serum glutamic pyruvate transaminase.

With `O=c1c2cccc3cccc(c32)c2nc3ccc(Cl)cc3n12` [10-Cl-BBQ, 10-chloro-7H-benzimidazo[2,1-a]benzo[de]isoquinolin-7-one] the “proteolysis of AhR” value (AhR) was “delayed its proteolysis”, the “expression of Foxp3” value (Foxp3) was “did not induce expression of Foxp3” and the “acute hepatic toxicity in mice” value [1] was “nor did it induce acute hepatic toxicity”. For the same compound, the “ALT (SGPT)” value ([1]; serum, mean (± SD), n = 5) was 34.4 (± 10.4) U/l, the Albumin ([1]; serum, mean (± SD), n = 5) was 3.3 (± 0.1) g/dl and the “Alkaline Phosphatase” value ([1]; serum, mean (± SD), n = 5) was 51.4 (± 8.3) U/l. For the same compound, the Bilirubin ([1]; serum, mean (± SD), n = 5) was 0.12 (± 0) mg/dl, the “Blood Urea Nitrogen” value ([1]; serum, mean (± SD), n = 5) was 10.2 (± 1.5) mg/dl and the Cholesterol ([1]; serum, mean (± SD), n = 5) was 119.2 (± 10.4) mg/dl. The Glucose ([1]; serum, mean (± SD), n = 5) was 201.2 (± 10.4) mg/dl and the “Gamma Glutamyl Transferase” value ([1]; serum, n = 5) was 0 U/l.
